Earlier results in patent US8207231B2, “Hepatitis A virucide” (Ecolab USA Inc., priority 1999, dated 2012).

Test system: hepatitis A
Settings: 1 percent and 2 percent concentration

Cc1ccc(S(=O)(=O)[N-]Cl)cc1.[Na+] [chloramine T]
meets the requirements for activity against hepatitis A: meets the requirements for activity against hepatitis A
